Key:
bedstraw = test: Test B pre/postemergence bedstraw; type: in vivo, Galium aparine
In short: (§1)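 Test chemicals in a non-phytotoxic solvent mixture with surfactant were sprayed preemergence onto planted seeds and postemergence onto plants 2 to 18 cm tall (1- to 4-leaf stage). After twelve to sixteen days in a greenhouse, injury was visually rated against untreated controls from 0 (no effect) to 10 (complete control).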

pigweed = test: Test B pre/postemergence pigweed; type: in vivo, Amaranthus retroflexus
In short: as §1

rice = test: Test B flood test rice; type: in vivo, Oryza sativa; conditions: for Plant response rating, Rice (0 to 10 scale, 0 is no effect, 10 is complete control): Rate 62 g/ha; for Plant response rating, Rice (0 to 10 scale, 0 is no effect, 10 is complete control) / Rice plant response rating (0 to 10 scale, 0 is no effect, 10 is complete control): visual evaluation after twelve to sixteen days; for Rice plant response rating (0 to 10 scale, 0 is no effect, 10 is complete control): Rate 125 g/ha, under heading Pre-emergence
In short: (§2)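 Each value is a visual injury score relative to controls, with 10 meaning complete control and 0 no effect. Evaluation took place twelve to sixteen days after the 2-leaf-stage plants were treated and kept in the greenhouse.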

bamyardgrass = test: Test B flood test barnyardgrass; type: in vivo, Echinochloa crus-galli; conditions: for Plant response rating, Barnyardgrass (0 to 10 scale, 0 is no effect, 10 is complete control): Rate 62 g/ha; for Plant response rating, Barnyardgrass (0 to 10 scale, 0 is no effect, 10 is complete control) / Barnyardgrass plant response rating (0 to 10 scale, 0 is no effect, 10 is complete control): visual evaluation after twelve to sixteen days; for Barnyardgrass plant response rating (0 to 10 scale, 0 is no effect, 10 is complete control): Rate 125 g/ha, under heading Pre-emergence
In short: as §2

[1] = Postemergence, Rate 62 g/ha, scale 0 to 10, 0 is no effect, 10 is complete control
[2] = Postemergence, Rate 125 g/ha, scale of 0 to 10 where 0 is no effect and 10 is complete control
[3] = Preemergence, Rate 62 g/ha, scale 0 to 10 (0 no effect, 10 complete control)
[4] = Preemergence, Rate 125 g/ha, scale of 0 to 10 where 0 is no effect and 10 is complete control
[5] = Preemergence, Rate 250 g/ha, scale 0 to 10 (0 no effect, 10 complete control)
[6] = Preemergence, Rate 500 g/ha, scale of 0 to 10 where 0 is no effect and 10 is complete control
[7] = Postemergence, Rate 250 g/ha, scale of 0 to 10, 0 is no effect, 10 is complete control
[8] = Postemergence, Rate 500 g/ha, scale of 0 to 10 where 0 is no effect and 10 is complete control
[9] = flood test species, Pre-emergence
[10] = Rate 250 g/ha, Pre-emergence (flood test species), scale 0 to 10, 0 is no effect, 10 is complete control
[11] = Rate 500 g/ha, Pre-emergence section of Table B, 0 to 10 scale (0 no effect, 10 complete control)
[12] = Postemergence, Rate 1000 g/ha, scale 0 to 10 (0 no effect, 10 complete control)
[13] = Rate 1000 g/ha, Preemergence, scale 0 to 10 (0 no effect, 10 complete control)
[14] = Pre-emergence, Rate 1000 g/ha, scale 0 to 10 (0 no effect, 10 complete control)
[15] = Rate 250 g/ha, Pre-emergence, flood-test species, scale 0 to 10, 0 is no effect, 10 is complete control
[16] = Rate 500 g/ha, Pre-emergence, flood test species, scale 0 to 10 (0 no effect, 10 complete control)

| Compound | Bedstraw plant response rating (bedstraw; [6]) | Plant response rating, Redroot pigweed (pigweed; [2]) | Redroot pigweed plant response rating (pigweed; [7]) | Plant response rating, Redroot pigweed (pigweed; [8]) | Redroot pigweed plant response rating (pigweed; [4]) | Plant response rating, Redroot pigweed (pigweed; [6]) | Plant response rating, Rice (0 to 10 scale, 0 is no effect, 10 is complete control) (rice; [9]) | Rice plant response rating (0 to 10 scale, 0 is no effect, 10 is complete control) (rice; flood test species) | Rice plant response rating (rice; [10]) | Rice plant response rating (rice; [11]) | Plant response rating, Barnyardgrass (0 to 10 scale, 0 is no effect, 10 is complete control) (bamyardgrass; [9]) | Barnyardgrass plant response rating (0 to 10 scale, 0 is no effect, 10 is complete control) (bamyardgrass; flood test species) | Barnyardgrass plant response rating (bamyardgrass; [10]) | Barnyardgrass plant response rating (bamyardgrass; [11]) | also measured |
| --- | --- | --- | --- | --- | --- | --- | --- | --- | --- | --- | --- | --- | --- | --- | --- |
| CCOC(=O)CC(C(=O)OCC)n1c(=O)on(C(=O)N(c2ccc(F)cc2)C(C)C)c1=O (centres unmarked) [Compound 615] | 0 | 0 | 0 | 0 | 0 | 4 | 0 | 0 | 0 | 0 | 0 | 0 | 0 | 0 | Plant response rating, Bedstraw (bedstraw; [1]): 0; Plant response rating, Bedstraw (bedstraw; [2]): 0; Bedstraw plant response rating (bedstraw; [3]): 0; Bedstraw plant response rating (bedstraw; [4]): 0; Plant response rating, Bedstraw (bedstraw; [5]): 0; Plant response rating, Redroot pigweed (pigweed; [1]): 0; Redroot pigweed plant response rating (pigweed; [3]): 0; Plant response rating, Redroot pigweed (pigweed; [5]): 0 |
| C=CCn1c(=O)on(C(=O)N(c2c(C)cccc2C)C(C)COC)c1=O (centres unmarked) [Compound 600] | 0 | 0 | 0 | 0 | 0 | 0 |  | 0 | 0 | 0 |  | 0 | 0 | 0 | Plant response rating, Bedstraw (bedstraw; [8]): 0; Bedstraw plant response rating (bedstraw; [12]): 0; Bedstraw plant response rating (0 to 10 scale) (bedstraw; Preemergence, Rate 250 g/ha): 0; Plant response rating, Bedstraw (bedstraw; [13]): 0; Redroot pigweed plant response rating (pigweed; [12]): 0; Plant response rating, Redroot pigweed (pigweed; [13]): 0; Rice plant response rating (rice; [14]): 0; Barnyardgrass plant response rating (bamyardgrass; [14]): 0 |
| CC(C)N(C(=O)n1oc(=O)n(C(CF)CF)c1=O)c1ccc(F)cc1 [Compound 390] |  |  |  |  |  |  | 1 | 1 |  |  | 2 | 5 |  |  | Bedstraw plant response rating (bedstraw; [8]): 7; Plant response rating, Bedstraw (bedstraw; [4]): 0; Plant response rating, Redroot pigweed (pigweed; Postemergence, Rate 250 g/ha, scale 0 to 10, 0 is no effect, 10 is complete control): 9; Redroot pigweed plant response rating (pigweed; [8]): 9; Plant response rating, Redroot pigweed (pigweed; [3]): 8; Plant response rating, Redroot pigweed (pigweed; [4]): 9; Redroot pigweed plant response rating (pigweed; Preemergence, Rate 250 g/ha, scale of 0 to 10 where 0 is no effect and 10 is complete control): 10; Redroot pigweed plant response rating (pigweed; [6]): 10; Redroot pigweed plant response rating (pigweed; Rate 62 g/ha, Postemergence, scale of 0 to 10 where 0 is no effect and 10 is complete control): 2; Rice plant response rating (rice; [15]): 1; Rice plant response rating (rice; [16]): 4; Barnyardgrass plant response rating (bamyardgrass; [15]): 4; Barnyardgrass plant response rating (bamyardgrass; [16]): 9 |
